# Data published in patent US20230135152A1 (ACURASTEM INCORPORATED, priority 2020, published 2023).
# How the values were obtained:
# PIKFYVE [1] = biological target: T1, PIKFYVE (Homo sapiens, UniProt Q9Y2I7); test: Cell-based Pikfyve inhibition activity assay (EEA1 staining, mean vesicle size in BJ fibroblast cells); settings: Table 4, 4 hours treatment, 3 μM Apilimod = 100% inhibition
# How it was run: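 BJ fibroblasts treated 4 h at 37° C with eleven 3-fold doses (0.03-3000 nM), then fixed and stained for EEA1. Confocal images (20×, 16 tiles/well) analysed for mean vesicle size. Normalised to 0.5% DMSO (0%) and 3 μM apilimod (100%); dose-response fitted with variable slope.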
# PIKFYVE [2] = biological target: T1, PIKFYVE; test: PIKFYVE assay (luciferase ADP-Glo kinase assay, Promega); assay type: biochemical
# How it was run: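 Kinase activity measured with a luciferase-based ADP-Glo read-out, which quantifies ADP formed by the enzyme.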
# T1 sequence (Q9Y2I7 whole entry): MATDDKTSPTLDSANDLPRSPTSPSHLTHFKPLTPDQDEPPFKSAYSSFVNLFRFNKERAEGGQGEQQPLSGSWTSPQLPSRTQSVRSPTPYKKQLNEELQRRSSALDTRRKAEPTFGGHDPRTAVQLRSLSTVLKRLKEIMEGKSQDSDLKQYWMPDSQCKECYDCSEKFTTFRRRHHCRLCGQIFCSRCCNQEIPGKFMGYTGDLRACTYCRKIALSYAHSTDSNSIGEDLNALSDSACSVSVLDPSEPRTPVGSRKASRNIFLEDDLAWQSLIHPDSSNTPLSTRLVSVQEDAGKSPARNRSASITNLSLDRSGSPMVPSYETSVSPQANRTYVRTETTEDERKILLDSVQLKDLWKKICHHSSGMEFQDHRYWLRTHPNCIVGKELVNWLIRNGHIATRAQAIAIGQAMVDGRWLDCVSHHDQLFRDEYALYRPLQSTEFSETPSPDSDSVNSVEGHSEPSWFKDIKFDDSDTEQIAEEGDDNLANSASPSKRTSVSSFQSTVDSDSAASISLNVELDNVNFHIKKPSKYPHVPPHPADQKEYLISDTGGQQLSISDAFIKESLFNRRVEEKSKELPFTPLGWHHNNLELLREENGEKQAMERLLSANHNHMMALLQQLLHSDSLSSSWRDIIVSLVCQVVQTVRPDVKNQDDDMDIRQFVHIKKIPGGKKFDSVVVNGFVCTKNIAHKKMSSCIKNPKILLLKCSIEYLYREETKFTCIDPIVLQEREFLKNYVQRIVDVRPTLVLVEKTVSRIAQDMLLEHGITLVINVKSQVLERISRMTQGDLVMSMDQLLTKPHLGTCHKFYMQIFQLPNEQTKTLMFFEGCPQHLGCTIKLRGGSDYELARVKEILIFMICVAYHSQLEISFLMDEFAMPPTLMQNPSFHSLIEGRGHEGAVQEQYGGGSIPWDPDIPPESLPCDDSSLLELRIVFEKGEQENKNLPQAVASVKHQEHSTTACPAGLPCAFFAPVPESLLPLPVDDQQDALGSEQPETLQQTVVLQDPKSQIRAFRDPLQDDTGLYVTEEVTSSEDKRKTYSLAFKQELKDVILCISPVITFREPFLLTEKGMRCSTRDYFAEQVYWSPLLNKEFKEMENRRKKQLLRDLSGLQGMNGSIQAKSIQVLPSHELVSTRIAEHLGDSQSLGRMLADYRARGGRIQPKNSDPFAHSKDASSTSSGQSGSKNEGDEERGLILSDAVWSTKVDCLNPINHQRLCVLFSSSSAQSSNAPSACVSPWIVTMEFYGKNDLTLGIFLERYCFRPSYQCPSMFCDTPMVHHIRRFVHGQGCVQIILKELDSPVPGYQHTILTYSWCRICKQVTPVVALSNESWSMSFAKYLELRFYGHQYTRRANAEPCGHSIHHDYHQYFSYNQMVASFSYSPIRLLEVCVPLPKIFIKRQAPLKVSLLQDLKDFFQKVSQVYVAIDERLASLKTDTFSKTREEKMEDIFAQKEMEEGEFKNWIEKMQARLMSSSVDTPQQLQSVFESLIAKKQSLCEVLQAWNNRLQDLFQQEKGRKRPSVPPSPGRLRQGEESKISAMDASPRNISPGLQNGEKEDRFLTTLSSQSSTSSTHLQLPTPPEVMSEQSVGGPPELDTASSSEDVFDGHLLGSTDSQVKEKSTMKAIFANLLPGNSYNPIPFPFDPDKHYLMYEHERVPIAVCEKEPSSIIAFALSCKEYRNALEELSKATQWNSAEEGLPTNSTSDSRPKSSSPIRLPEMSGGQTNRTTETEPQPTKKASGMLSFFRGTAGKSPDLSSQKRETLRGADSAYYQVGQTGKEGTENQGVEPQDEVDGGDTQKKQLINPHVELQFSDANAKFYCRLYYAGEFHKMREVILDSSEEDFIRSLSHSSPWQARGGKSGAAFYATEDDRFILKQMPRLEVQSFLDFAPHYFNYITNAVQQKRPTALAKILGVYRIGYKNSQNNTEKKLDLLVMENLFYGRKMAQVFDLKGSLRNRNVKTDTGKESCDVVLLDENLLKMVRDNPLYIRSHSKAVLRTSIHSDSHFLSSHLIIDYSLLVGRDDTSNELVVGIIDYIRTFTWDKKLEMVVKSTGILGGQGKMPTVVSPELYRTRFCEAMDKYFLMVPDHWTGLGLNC
EC50 (PIKFYVE [1]) [nM],IC50 (PIKFYVE [2]; Table 3) [nM],IC50 (PIKFYVE [2]; Table 2) [nM],Structure (SMILES)
100 to 500,3 to 10,–,"Cc1cccc(-c2ccn(-c3cc(N4CCOCC4)nc(OCC4CC4)n3)n2)c1 [Compound 101, 4-(2-(cyclopropyl-methoxy)-6-(3-(m-tolyl)-1H-pyrazol-1-yl)pyrimidin-4-yl)morpholine]"
< 20,< 3,–,"Cc1cccc(-c2cc(CO)n(-c3cc(N4CCOCC4)nc(OCCc4cnn(C)c4)n3)n2)c1 [Compound 234, (1-(2-(2-(1-methyl-1H-pyrazol-4-yl)ethoxy)-6-morpholinopyrimidin-4-yl)-3-(m-tolyl)-1H-pyrazol-5-yl)methanol]"
500 to 5000,10 to 100,–,"CO[C@@H](CO)c1nc(N2CCO[C@H](C)C2)cc(-n2ccc(-c3cccc(C)c3)n2)n1 (single isomer, unassigned) [Compound 308]"
20 to 100,–,< 5,"Cn1cc(C(O)C#Cc2nc(N3CCOCC3)cc(-n3ccc(-c4ccccc4)n3)n2)cn1 (stereo not shown) [Compound 80, 1-(1-methyl-1H-pyrazol-4-yl)-3-(4-morpholino-6-(3-phenyl-1H-pyrazol-1-yl)pyrimidin-2-yl)prop-2-yn-1-ol]"
< 20,3 to 10,–,"Cc1cccc(-c2ccn(-c3cc(N4CCOCC4)nc(OCCc4sc(C)nc4C)n3)n2)c1 [Compound 98, 4-(2-(2-(2,4-dimethylthiazol-5-yl)ethoxy)-6-(3-(m-tolyl)-1H-pyrazol-1-yl)pyrimidin-4-yl)morpholine]"
20 to 100,–,< 5,"Cc1cccc(-c2ccn(-c3cc(N4CCOCC4)nc(C(O)CC#N)n3)n2)c1 (stereo not shown) [Compound 76, 3-hydroxy-3-(4-morpholino-6-(3-(m-tolyl)-1H-pyrazol-1-yl)pyrimidin-2-yl)propanenitrile]"
100 to 500,3 to 10,–,"CCO[C@H](CO)c1nc(N2CCOCC2)cc(-n2ccc(-c3cccc(C)c3)n2)n1 (single isomer, unassigned) [Compound 311]"
< 20,< 3,–,"Cc1cc(-c2c[nH]c3ccccc23)nn1-c1cc(N2CCOCC2)nc(C2COCCO2)n1 (single isomer, unassigned) [Compound 345]"
20 to 100,< 3,–,"Cc1cccc(-c2ccn(-c3cc(N4CCOCC4)nc(OCCc4cn(C)cn4)n3)n2)c1 [Compound 118, 4-(2-(2-(1-methyl-1H-imidazol-4-yl)ethoxy)-6-(3-(m-tolyl)-1H-pyrazol-1-yl)pyrimidin-4-yl)morpholine]"
100 to 500,3 to 10,–,"COC(CO)(c1ccccc1)c1nc(N2CCOCC2)cc(-n2ccc(-c3cccc(C)c3)n2)n1 (stereo not shown) [Compound 229, 2-methoxy-2-(4-morpholino-6-(3-(m-tolyl)-1H-pyrazol-1-yl)pyrimidin-2-yl)-2-phenylethan-1-ol]"
20 to 100,< 3,–,"Cc1cccc(-c2ccn(-c3cc(N4CCOCC4)nc(CCC(O)c4cnn(C)c4)n3)n2)c1 (stereo not shown) [Compound 231, 1-(1-methyl-1H-pyrazol-4-yl)-3-(4-morpholino-6-(3-(m-tolyl)-1H-pyrazol-1-yl)pyrimidin-2-yl)propan-1-ol]"
500 to 5000,10 to 100,–,"CO[C@H](CO)c1nc(N2CCOCC2)cc(-n2ccc(-c3cccc4[nH]ccc34)n2)n1 [Compound 268, (S)-2-(4-(3-(1H-indol-4-yl)-1H-pyrazol-1-yl)-6-morpholinopyrimidin-2-yl)-2-methoxyethan-1-ol]"
20 to 100,–,< 5,Cc1cccc(-c2ccn(-c3cc(N4CCOCC4)nc(CCc4ncccn4)n3)n2)c1 [Compound 43]
100 to 500,3 to 10,–,"CO[C@H](CO)c1nc(N2CCOCC2)cc(-n2nc(-c3cccc(C)c3)cc2C)n1 [Compound 225, (S)-2-methoxy-2-(4-(5-methyl-3-(m-tolyl)-1H-pyrazol-1-yl)-6-morpholinopyrimidin-2-yl)ethan-1-ol]"
20 to 100,< 3,–,"Cc1cccc(-c2cc(CN3CCOCC3)n(-c3cc(N4CCOCC4)nc(OCCc4cnn(C)c4)n3)n2)c1 [Compound 235, 4-(2-(2-(1-methyl-1H-pyrazol-4-yl)ethoxy)-6-(5-(morpholinomethyl)-3-(m-tolyl)-1H-pyrazol-1-yl)pyrimidin-4-yl)morpholine]"
20 to 100,< 3,–,Cc1cccc(-c2ccn(-c3cc(N4CCOCC4)nc(NC(=O)CCc4cnn(C)c4)n3)n2)c1 [Compound 187]
100 to 500,< 3,–,"Cn1ccc(COc2nc(N3CCOCC3)cc(-n3ccc(-c4ccccc4)n3)n2)n1 [Compound 115, 4-(2-((1-methyl-1H-pyrazol-3-yl)methoxy)-6-(3-phenyl-1H-pyrazol-1-yl)pyrimidin-4-yl)morpholine]"
20 to 100,3 to 10,–,"Cc1cccc(-c2ccn(-c3cc(N4CCOCC4)nc(OCc4ncccc4F)n3)n2)c1 [Compound 95, 4-(2-((3-fluoropyridin-2-yl)methoxy)-6-(3-(m-tolyl)-1H-pyrazol-1-yl)pyrimidin-4-yl)morpholine]"

EC50 (PIKFYVE [1]) [nM],IC50 (PIKFYVE [2]; Table 3) [nM],IC50 (PIKFYVE [2]; Table 2) [nM],Structure (SMILES)
20 to 100,< 3,–,"Cc1cccc(-c2ccn(-c3cc(N4CCOCC4)nc(OCCc4cnn(CCO)c4)n3)n2)c1 [Compound 180, 2-(4-(2-((4-morpholino-6-(3-(m-tolyl)-1H-pyrazol-1-yl)pyrimidin-2-yl)oxy)ethyl)-1H-pyrazol-1-yl)ethan-1-ol]"
100 to 500,< 3,–,"Cn1cc(CCOc2nc(N3CCOCC3)cc(-n3nc(O)cc3-c3ccccc3)n2)cn1 [Compound 211, 1-(2-(2-(1-methyl-1H-pyrazol-4-yl)ethoxy)-6-morpholinopyrimidin-4-yl)-5-phenyl-1H-pyrazol-3-ol]"
500 to 5000,3 to 10,–,"Cc1cccc(-c2cc(CN(C)C)n(-c3cc(N4CCOCC4)c4[nH]ccc4n3)n2)c1 [Compound 242, N,N-dimethyl-1-(1-(7-morpholino-1H-pyrrolo[3,2-b]pyridin-5-yl)-3-(m-tolyl)-1H-pyrazol-5-yl)]"
500 to 5000,–,< 5,"Cn1cc(CCOc2nc(N3CCOCC3)cc(-n3ccc(-c4cccnc4)n3)n2)cn1 [Compound 71, 4-(2-(2-(1-methyl-1H-pyrazol-4-yl)ethoxy)-6-(3-(pyridin-3-yl)-1H-pyrazol-1-yl)pyrimidin-4-yl)morpholine]"
500 to 5000,10 to 100,–,"Cc1cccc(-c2ccn(-c3cc(N4CCOCC4)nc([C@H](CO)OC(F)F)n3)n2)c1 (single isomer, unassigned) [Compound 310]"
100 to 500,10 to 100,–,"Cn1cc(CCOc2nc(N3CCOCC3)cc(-n3ccc(-c4c[nH]c5ccccc45)n3)n2)cn1 [Compound 203, 4-(6-(3-(1H-indol-3-yl)-1H-pyrazol-1-yl)-2-(2-(1-methyl-1H-pyrazol-4-yl)ethoxy)pyrimidin-4-yl)morpholine]"
100 to 500,< 3,–,"Cc1cccc(-c2ccn(-c3cc(N4CCOCC4)nc(NC(=O)Cc4cnn(C)c4)n3)n2)c1 [Compound 186, 2-(1-methyl-1H-pyrazol-4-yl)-N-(4-morpholino-6-(3-(m-tolyl)-1H-pyrazol-1-yl)pyrimidin-2-yl)acetamide]"
500 to 5000,10 to 100,–,"CO[C@H](CO)c1nc(N2CCO[C@@H](C)C2)cc(-n2ccc(-c3cccc(C)c3)n2)n1 (single isomer, unassigned) [Compound 305]"
100 to 500,–,< 5,"COc1cccc(-c2ccn(-c3cc(N4CCOCC4)nc(N)n3)n2)c1 [Compound 44, 4-(3-(3-methoxyphenyl)-1H-pyrazol-1-yl)-6-morpholino-pyrimidin-2-amine]"
20 to 100,3 to 10,–,"C#CCCCOc1nc(N2CCOCC2)cc(-n2ccc(-c3cccc(C)c3)n2)n1 [Compound 108, 4-(2-(pent-4-yn-1-yloxy)-6-(3-(m-tolyl)-1H-pyrazol-1-yl)pyrimidin-4-yl)morpholine]"
100 to 500,3 to 10,–,"COCc1cccc(-c2ccn(-c3cc(N4CCOCC4)nc([C@H](CO)OC)n3)n2)c1 [Compound 277, (R)-2-methoxy-2-(4-(3-(3-(methoxymethyl)phenyl)-1H-pyrazol-1-yl)-6-morpholinopyrimidin-2-yl)ethan-1-ol]"
100 to 500,10 to 100,–,"COc1cccc(-c2ccn(-c3cc(N4CCOCC4)nc([C@H](CO)OC)n3)n2)c1 [Compound 263, (R)-2-methoxy-2-(4-(3-(3-methoxyphenyl)-1H-pyrazol-1-yl)-6-morpholinopyrimidin-2-yl)ethan-1-ol]"
100 to 500,3 to 10,–,"Cc1cccc(-c2ccn(-c3cc(N4CCOCC4)nc(OCCc4cnn(C)c4)n3)n2)n1 [Compound 190, 4-(2-(2-(1-methyl-1H-pyrazol-4-yl)ethoxy)-6-(3-(6-methylpyridin-2-yl)-1H-pyrazol-1-yl)pyrimidin-4-yl)morpholine]"
500 to 5000,10 to 100,–,"CO[C@@H](CO)c1nc(N2CCOCC2)cc(-n2nc(-c3ccccc3)cc2C)n1 [Compound 204, (R)-2-methoxy-2-(4-(5-methyl-3-phenyl-1H-pyrazol-1-yl)-6-morpholinopyrimidin-2-yl)ethan-1-ol]"
100 to 500,< 3,–,"Cc1cccc(-c2ccn(-c3cc(N4CCOCC4)nc(OC(CN(C)C)c4ccccc4)n3)n2)c1 (stereo not shown) [Compound 113, N,N-dimethyl-2-((4-morpholino-6-(3-(m-tolyl)-1H-pyrazol-1-yl)pyrimidin-2-yl)oxy)-2-phenylethan-1-amine]"
< 20,< 3,–,"CN(C)CCc1cc(-c2ccccc2)nn1-c1cc(N2CCOCC2)nc(OCCc2cnn(C)c2)n1 [Compound 220, N,N-dimethyl-2-(1-(2-(2-(1-methyl-1H-pyrazol-4-yl)ethoxy)-6-morpholinopyrimidin-4-yl)-3-phenyl-1H-pyrazol-5-yl)ethan-1-amine]"
100 to 500,3 to 10,–,"Cc1cccc(-c2ccn(-c3cc(N4CCOCC4)nc(-n4cnc(CCO)c4)n3)n2)c1 [Compound 339, 2-(1-(4-morpholino-6-(3-(m-tolyl)-1H-pyrazol-1-yl)pyrimidin-2-yl)-1H-imidazol-4-yl)ethan-1-ol]"
